Laboratory results: the supplement of paper PMC10307832

Experiments:
Experiment in all cases: relative viability (nuclei count vs DMSO), 5 days (fraction); higher = more cells survive
[1] = compound: CCN(CCO)CCCC(C)Nc1ccnc2cc(Cl)ccc12 [Hydroxychloroquine] + C[C@@H](Oc1cc(-c2cnn(C3CCNCC3)c2)cnc1N)c1c(Cl)ccc(F)c1Cl [Crizotinib] (partner 1 µM)
Method in brief: (§1)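 After 5 days of treatment, lung cancer cells in 1536-well plates were fixed and stained in a single step (final 0.05% Triton X-100, 1% formaldehyde, 1 ug/ml Hoechst) and their nuclei counted on 4× images. Treatment had been applied by pin tool the day after seeding as one drug alone or as a fixed anchor-drug dose with five library-drug doses (not always all listed) in √10 steps. Relative viability is the nuclei count of treated wells divided by that of vehicle wells, and values are medians of duplicate plates.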

[2] = compound: CCN(CCO)CCCC(C)Nc1ccnc2cc(Cl)ccc12 [Hydroxychloroquine] + N=C(N)NC(=N)NCCc1ccccc1 [Phenformin] (partner 250 µM)
Method in brief: as §1

[3] = compound: CCN(CCO)CCCC(C)Nc1ccnc2cc(Cl)ccc12 [Hydroxychloroquine] + CC1(C)CCC(c2ccc(Cl)cc2)=C(CN2CCN(c3ccc(C(=O)NS(=O)(=O)c4ccc(N[C@H](CCN5CCOCC5)CSc5ccccc5)c(S(=O)(=O)C(F)(F)F)c4)cc3)CC2)C1 [Navitoclax] (partner 0.5 µM)
Method in brief: as §1

[4] = compound: CCN(CCO)CCCC(C)Nc1ccnc2cc(Cl)ccc12 [Hydroxychloroquine] + Nc1ncn([C@H]2C[C@H](O)[C@@H](CO)O2)c(=O)n1 [Decitabine] (partner 2 µM)
Method in brief: as §1

Cell Line	relative viability ([1]; first compound 0.5 µM)	relative viability ([1]; first compound 1.581 µM)	relative viability ([1]; first compound 5 µM)	relative viability ([1]; first compound 15.81 µM)	relative viability ([1]; first compound 50 µM)	relative viability ([2]; first compound 0.5 µM)	relative viability ([2]; first compound 1.581 µM)	relative viability ([2]; first compound 5 µM)	relative viability ([2]; first compound 15.81 µM)	relative viability ([2]; first compound 50 µM)	relative viability ([3]; first compound 0.5 µM)	relative viability ([3]; first compound 1.581 µM)	relative viability ([3]; first compound 5 µM)	relative viability ([3]; first compound 15.81 µM)	relative viability ([3]; first compound 50 µM)	relative viability ([4]; first compound 0.5 µM)	relative viability ([4]; first compound 1.581 µM)	relative viability ([4]; first compound 5 µM)	relative viability ([4]; first compound 15.81 µM)	relative viability ([4]; first compound 50 µM)
201T	1.02	1	1.07	0.978	0.821	0.441	0.428	0.449	0.419	0.526	1.22	1.19	1.19	1.19	1.22	0.858	0.834	0.852	0.864	0.844
A549	0.832	0.643	0.781	0.735	0.805	0.154	0.0895	0.15	0.14	0.154	1.24	1.09	1.26	1.29	1.19	0.264	0.208	0.267	0.196	0.391
A-427	0.935	0.869	0.94	0.838	0.973	0.316	0.293	0.315	0.284	0.229	0.875	0.776	0.993	0.919	1.04	0.539	0.551	0.585	0.509	0.479
ABC-1	1.13	0.981	1.46	1.2	1.09	0.244	0.205	0.237	0.192	0.206	–	–	–	–	–	1.15	1.1	1.09	1.35	0.906
BEN	0.848	0.728	0.863	0.947	1.01	0.255	0.26	0.234	0.241	0.303	0.051	0.0669	0.0688	0.0612	0.0766	0.764	0.649	0.64	0.75	0.636
CAL-12T	0.577	0.614	0.92	0.579	0.831	0.585	0.593	0.587	0.599	0.519	1.06	1.22	1.21	1.23	1.23	–	–	–	–	–
COR-L23	0.786	0.573	0.895	0.868	0.86	0.445	0.467	0.496	0.49	0.485	1.03	0.926	1.24	1.31	1.12	0.451	0.452	0.397	0.416	0.534
COR-L 105	0.871	0.838	0.901	0.835	0.79	0.529	0.476	0.497	0.351	0.447	0.595	0.747	0.778	0.816	0.594	0.669	0.542	0.588	0.583	0.605
Calu-6	0.84	0.855	0.847	0.896	0.579	–	–	–	–	–	0.852	0.883	0.836	0.731	0.823	–	–	–	–	–
ChaGo-K-1	1.05	1.14	1.16	1.51	1.24	0.509	0.542	0.438	0.501	0.522	1.22	0.685	0.687	1.06	1	0.515	0.545	0.538	0.496	0.518
EBC-1	0.196	0.181	0.181	0.189	0.189	–	–	–	–	–	0.371	0.387	0.418	0.412	0.374	–	–	–	–	–
EKVX	1.01	0.919	0.814	0.907	0.963	0.249	0.192	0.249	0.243	0.208	1.1	0.919	1.07	1.04	0.943	0.346	0.308	0.334	0.407	0.372
EMC-BAC-2	0.826	0.743	0.741	0.755	0.807	0.543	0.385	0.497	0.523	0.503	1.17	1.23	1.17	1.17	1.36	1.01	0.863	0.965	0.952	0.952
EPLC-272H	0.8	0.983	0.92	0.86	1.23	0.267	0.312	0.273	0.309	0.241	1.19	1.07	1.28	1.24	1.29	0.319	0.403	0.403	0.321	0.372
H3255	0.848	0.979	0.716	0.841	0.985	0.332	0.368	0.326	0.356	0.313	0.56	0.422	0.546	0.522	0.635	0.612	0.536	0.593	0.718	0.592
HARA	1.13	1.31	1.05	1.02	1.04	0.475	0.406	0.519	0.442	0.465	1.14	1.15	1.14	1.2	1.12	0.492	0.539	0.524	0.534	0.519
HCC-15	0.884	0.818	0.867	1.01	0.94	0.461	0.465	0.522	0.497	0.456	0.72	0.669	0.702	0.758	0.714	0.674	0.648	0.627	0.666	0.702

Cell Line	relative viability ([1]; first compound 0.5 µM)	relative viability ([1]; first compound 1.581 µM)	relative viability ([1]; first compound 5 µM)	relative viability ([1]; first compound 15.81 µM)	relative viability ([1]; first compound 50 µM)	relative viability ([2]; first compound 0.5 µM)	relative viability ([2]; first compound 1.581 µM)	relative viability ([2]; first compound 5 µM)	relative viability ([2]; first compound 15.81 µM)	relative viability ([2]; first compound 50 µM)	relative viability ([3]; first compound 0.5 µM)	relative viability ([3]; first compound 1.581 µM)	relative viability ([3]; first compound 5 µM)	relative viability ([3]; first compound 15.81 µM)	relative viability ([3]; first compound 50 µM)	relative viability ([4]; first compound 0.5 µM)	relative viability ([4]; first compound 1.581 µM)	relative viability ([4]; first compound 5 µM)	relative viability ([4]; first compound 15.81 µM)	relative viability ([4]; first compound 50 µM)
HCC-44	0.821	0.804	0.87	0.829	1.01	0.316	0.145	0.171	0.226	0.234	1.02	1	0.964	0.994	1.06	0.966	0.978	0.974	0.939	0.914
HCC-78	0.349	0.325	0.338	0.314	0.358	0.809	0.739	0.716	0.653	0.741	0.865	0.82	0.993	0.768	0.777	0.655	0.638	0.651	0.676	0.73
IA-LM	0.839	0.95	0.898	0.718	0.899	–	–	–	–	–	0.764	0.79	0.832	0.798	0.847	–	–	–	–	–
LCLC-103H	1.03	1.01	0.951	1.04	1.14	0.347	0.33	0.341	0.335	0.346	–	–	–	–	–	0.699	0.751	0.727	0.736	0.767
NCI-H358	0.515	0.579	0.587	0.516	0.591	0.345	0.284	0.314	0.32	0.323	–	–	–	–	–	0.208	0.203	0.217	0.21	0.201
NCI-H522	–	–	–	–	–	0.647	0.581	0.702	0.717	0.623	–	–	–	–	–	0.689	–	0.566	0.676	0.59
NCI-H650	0.787	0.63	–	0.675	0.835	0.479	0.438	0.413	0.455	0.473	–	–	–	–	–	0.347	0.31	0.361	0.31	0.307
NCI-H661	0.939	0.962	1.05	0.927	1.09	0.275	0.259	0.3	0.243	0.254	–	–	–	–	–	0.584	0.587	0.564	0.528	0.567
NCI-H1299	0.999	0.937	0.91	0.98	0.693	–	–	–	–	–	1.05	1.01	1.02	1.05	1.04	–	–	–	–	–
NCI-H1395	–	–	–	–	–	0.465	0.445	0.451	0.456	0.43	1.21	1.05	1.17	1.18	1.01	0.665	0.68	0.741	0.763	0.704
NCI-H1563	0.808	0.833	0.848	0.83	0.806	0.677	0.652	0.649	0.635	0.635	–	–	–	–	–	–	–	–	–	–
NCI-H1648	–	–	–	–	–	–	–	–	–	–	–	–	–	–	–	0.51	0.447	0.512	0.518	0.484
NCI-H1703	0.851	–	0.592	0.74	0.921	–	–	–	–	–	1.08	0.934	1.02	1.02	1.29	–	–	–	–	–
NCI-H1793	–	–	–	–	–	0.38	0.325	0.364	0.351	0.36	0.331	0.32	0.404	0.389	0.547	0.542	0.466	0.42	0.412	0.259
NCI-H2228	0.461	0.46	0.46	0.491	0.427	0.265	0.342	0.348	0.407	0.292	0.671	0.717	1.04	0.78	1.16	–	–	–	–	–
NCI-H2342	–	–	–	–	–	0.59	0.588	0.561	0.619	0.645	–	–	–	–	–	0.774	0.765	0.782	0.756	0.769
SW 900	–	–	–	–	–	0.514	0.496	0.509	0.585	0.513	–	–	–	–	–	0.398	0.445	0.422	0.417	0.41
